From patent US12404244B2, “Pan-KIT kinase inhibitor having quinoline structure and application thereof” (Tarapeutics Science Inc., priority 2018, dated 2025) come the findings set out here.

What all share (format): cell-based, mouse
The subject of test [1] is BaF3. The experiment in a line: Proliferation of parental BaF3 cells (CCK-8). The following applies: for GI50: Mus musculus, read-out: GI50 BaF3. The text has this: (§1) Compounds as provided herein were further evaluated for their inhibitory effects on proliferation of cancer cells by testing their effects on growth of cancer cells. In this example the following cells were used: primary mouse B cells BaF3 (purchased from ATCC), GIST-T1 cells of the human gastrointestinal stromal tumor cell line (expressing wild-type KIT gene) (purchased from Cosmo Bio Co., Ltd. (Japan)). The present lab further constructed and used the following: mouse Tel-Kit-BaF3 (stably expressing KIT wild-type kinase), mouse Tel-Kit/T670I-BaF3 (stably expressing KIT T670I mutant kinase), mouse Tel-Kit/V559A-BaF3 (stably expressing KIT V559A mutant kinase), mouse Tel-Kit/V559D-BaF3 (stably expressing KIT V559D mutant kinase), mouse Tel-Kit/V559G-BaF3 (stably expressing KIT V559G mutant kinase), mouse Tel-Kit/V560D-BaF3 (stably expressing KIT V560D mutant kinase), mouse Tel-Kit/L576P-BaF3 (stably expressing KIT L576P mutant kinase), mouse Tel-Kit/V654A-BaF3 (stably expressing KIT V654A mutant kinase), mouse Tel-Kit/V654A/V559D-BaF3 (stably expressing KIT V654A V559D mutant kinase), mouse Tel-Kit/T670E-BaF3 (stably expressing KIT T670E mutant kinase), mouse Tel-Kit/T670I/V559D-BaF3 (stably expressing KIT T670I V559D mutant kinase), mouse Tel-Kit/S709F-BaF3 (stably expressing KIT S709F mutant kinase), mouse Tel-Kit/D816E-BaF3 (stably expressing KIT D816E mutant kinase), mouse Tel-Kit/D816H-BaF3 (stably expressing KIT D816H mutant kinase), mouse Tel-Kit/D820E-BaF3 (stably expressing KIT D820E mutant kinase), mouse Tel-Kit/D820G-BaF3 (stably expressing KIT D820G mutant kinase), mouse Tel-Kit/D820Y-BaF3 (stably expressing KIT D820Y mutant kinase), mouse Tel-Kit/N822K-BaF3 (stably expressing KIT N822K mutant kinase), mouse Tel-Kit/Y823D-BaF3 (stably expressing KIT Y823D mutant kinase), mouse Tel-Kit/A829P-BaF3 (stably expressing KIT A829P mutant kinase), GIST-T1-T670I cells of the human gastrointestinal stromal tumor cell line (expressing KIT-T670I mutant gene). The above cell lines were constructed by: amplifying respectively the sequences of human KIT and various mutant kinase regions of KIT via PCR, inserting the fragments respectively into MSCV-Puro vectors having a N-terminal TEL fragment and/or a NPM fragment and/or a TPR fragment (purchased from Clontech), transfecting mouse BaF3 cells with the vectors by means of retrovirus to obtain stably transfected cells, removing the growth factor IL-3, and thereby eventually obtaining cell lines that depend on the transferred protein KIT or various mutants of KIT. The GIST-T1-T670I (expressing C-KIT-T670I mutant gene) cell line was constructed by our laboratory as follows: designing sgRNA that targeted a region around T670 of the KIT gene with CRISPR Design Tool (website: crispr.mit.edu, Zhang Feng Lab), cloning it into pSpCas9(BB)-2A-Puro vector; co-transfecting cells with the resultant vector and a single-stranded oligonucleotide having T670I site mutation that is near to T670, subjecting the resultant to antibiotics screening, followed by dilution, and monocellular culture in a 96-well plate; validating the site T670 of the cells by sequence detection via Sanger sequencing.
(§2) The cells after incubation were detected using CCK-8 (purchased from MedChem Express, Shanghai, China) cell viability assay kit (CCK-8 may be reduced by dehydrogenase in living cells to a highly water-soluble yellow formazan product, and the amount of the resultant formazan is proportional to the number of living cells), the number of living cells were quantified with a microplate reader, and GI50 of the compounds and the control compounds were calculated (the results shown in Table 2 and Table 3).

Test [2] deals with TEL-KIT-BaF3 (stably expressing KIT wild-type kinase). The experiment in a line: Proliferation of TEL-KIT-BaF3 cells (CCK-8). As to conditions: for GI50: Mus musculus, read-out: GI50 TEL-KIT-BaF3.
Excerpt: as §1, §2

Test [3] relates to TEL-KIT/T670I-BaF3. In words: Proliferation of TEL-KIT/T670I-BaF3 cells (CCK-8). The following applies: for GI50: Mus musculus, read-out: GI50 TEL-KIT/T670I-BaF3.
Excerpt: as §1

Where [4] appears, read: BaF3 parent cells, 72 hours, CCK-8.

SMILES strings stand for the structures. Read-outs that look alike come from different tables or passages of the source.

Turning to `COc1cc2nccc(Oc3ccc(C(=O)NCc4cccc(C(F)(F)F)c4)cc3)c2cc1OC` [Comparative Example 3, N-(3-(trifluoromethyl)benzyl)-4-((6,7-dimethoxyquinolin-4-yl)oxy)benzamide, reference compound], the GI50 in test [1] (setting [4]) was no less than 10000 nM; in test [2] (KIT wild-type, 72 hours, CCK-8) it was 2350 nM; in test [3] (72 hours, CCK-8), 4610 nM. Also, the “inhibitory effect against wild-type KIT” value in test [2] is recorded as “substantially vanished”. Further, the “inhibitory effect against mutant KIT-T670I” value in test [3] is “substantially vanished”.
As for `COc1cc2nccc(Oc3ccc(NC(=O)Cc4ccc(C)c(C)c4)cc3)c2cc1OC` [Example 11, N-(4-((6,7-dimethoxyquinolin-4-yl)oxy)phenyl)-2-(3,4-dimethylphenyl)acetamide], the GI50 was determined as 6420 nM in test [1] (BaF3, 72 h); 27 nM in test [2] (72 h); 15 nM in test [3] (72 h).
The corresponding values for `COc1cc2nccc(Oc3ccc(NC(=O)Cc4cccc(C(F)(F)F)c4)cc3)c2cc1OC` [Example 8, N-(4-((6,7-dimethoxyquinolin-4-yl)oxy)phenyl)-2-(3-(trifluoromethyl)phenyl)acetamide] are 1890 nM, 20 nM and 1 nM.
Turning to `COc1cccc(CC(=O)Nc2ccc(Oc3ncnc4cc(OC)c(OC)cc34)cc2)c1` [Comparative Example 4, N-(4-((6,7-dimethoxyquinazolin-4-yl)oxy)phenyl)-2-(3-methoxyphenyl)acetamide, reference compound], the “selectivity against BaF3” value in test [1] (KIT and KIT-T670I relative to parent BaF3 cells) is recorded as “weaker selectivity against BaF3”. The GI50 in test [1] (setting [4]) came out at 3120 nM; in test [2] (KIT wild-type, 72 hours, CCK-8), 183 nM; in test [3] (72 hours, CCK-8) it was 844 nM. Besides, in test [2], the “inhibitory effect against wild-type KIT” value is “certain inhibitory activity but lower than that of the present invention compounds”. Besides, the “inhibitory effect against mutant KIT-T670I” value in test [3] was “certain inhibitory activity but lower than that of the present invention compounds”.
With `COc1cc2nccc(Oc3ccc(NC(=O)Cc4ccc(Cl)c(C(F)(F)F)c4)c(F)c3)c2cc1OC` [Example 24, N-(2-fluoro-4-((6,7-dimethoxyquinolin-4-yl)oxy)phenyl)-2-(4-chloro-3-(trifluoromethyl)phenyl)acetamide], the GI50 in test [1] (BaF3, 72 h) was determined as 3210 nM; in test [2] (72 h) it was 49 nM; in test [3] (72 h) it was 18 nM.
For `COc1cc2nccc(Oc3ccc(NC(=O)Cc4ccc(C(F)(F)F)cc4)cc3)c2cc1OC` [Example 9, N-(4-((6,7-dimethoxyquinolin-4-yl)oxy)phenyl)-2-(4-(trifluoromethyl)phenyl)acetamide] the same measures were 2160 nM, 22 nM and 11 nM.
The corresponding values for `COc1cc2nccc(Oc3ccc(NC(=O)Cc4ccc(F)c(C(F)(F)F)c4)cc3)c2cc1OC` [Example 13, N-(4-((6,7-dimethoxyquinolin-4-yl)oxy)phenyl)-2-(4-fluoro-3-(trifluoromethyl)phenyl)acetamide] are 1030 nM, 24 nM and 13 nM.
For `COc1cc2nccc(Oc3ccc(NC(=O)NCCCc4ccccc4)cc3)c2cc1OC` [Example 30, 1-(4-((6,7-dimethoxyquinolin-4-yl)oxy)phenyl)-3-(3-phenylpropyl)urea], the GI50 was 2910 nM in test [1] (setting [4]); 110 nM in test [2] (KIT wild-type, 72 hours, CCK-8); 10 nM in test [3] (72 hours, CCK-8).
For `COc1cc2nccc(Oc3ccc(NC(=O)NCCCc4ccc(F)cc4)cc3)c2cc1OC` [Example 32, 1-(4-((6,7-dimethoxyquinolin-4-yl)oxy)phenyl)-3-(3-(4-fluorophenyl)propyl)urea] the same measures were 3850 nM, 68 nM and 15 nM.
With `COc1cc2nccc(Oc3ccc(NC(=O)Cc4ccc(Cl)c(C(F)(F)F)c4)cc3Cl)c2cc1OC` [Example 38, N-(3-chloro-4-((6,7-dimethoxyquinolin-4-yl)oxy)phenyl)-2-(4-chloro-3-(trifluoromethyl)phenyl)acetamide], the GI50 in test [1] (BaF3, 72 h) was 9450 nM; in test [2] (72 h), 78 nM; in test [3] (72 h), 56 nM.
For `COc1cc2nccc(Oc3ccc(NC(=O)NCCCc4cccc(F)c4)cc3)c2cc1OC` [Example 31, 1-(4-((6,7-dimethoxyquinolin-4-yl)oxy)phenyl)-3-(3-(3-fluorophenyl)propyl)urea], the GI50 in test [1] (setting [4]) amounted to 2480 nM; in test [2] (KIT wild-type, 72 hours, CCK-8) it was 97 nM; in test [3] (72 hours, CCK-8) it was 16 nM.
Turning to `COc1cc2nccc(Oc3ccc(NC(=O)Cc4ccccc4)cn3)c2cc1OC` [Comparative Example 1, N-(6-((6,7-dimethoxyquinolin-4-yl)oxy)pyridin-3-yl)-2-phenylacetamide, reference compound], the GI50 in test [1] (BaF3, 72 h) was greater than 10000 nM; in test [2] (72 h) it was greater than 10000 nM; in test [3] (72 h), greater than 10000 nM. Further, in test [2], the “inhibitory effect against wild-type KIT” value is on record as “no significant inhibitory effects”. Also, the “inhibitory effect against mutant KIT-T670I” value in test [3] is recorded as “no significant inhibitory effects”.
